In PMC5515969, “Effects of 31 FDA approved small-molecule kinase inhibitors on isolated rat liver mitochondria” (Archives of Toxicology, 2016):
Like-named read-outs stand apart in the source and are kept apart here.

Tests used:
[1] = test system: isolated rat liver mitochondria; test: Mitochondrial swelling (absorbance at 535 nm); format: biochemical; details: for Swelling 1XCmax / Swelling 2.5XCmax / Swelling 5XCmax / Swelling 10XCmax / Swelling 20XCmax / Swelling 30XCmax / Swelling 50XCmax / Swelling 100XCmax: difference in signal between KI and DMSO treated samples at the end of experiments; on Swelling 5XCmax: key: 0 indicates that the drug had no effects (negative)
RCC IV = RCC IV activity in submitochondrial particles; format: biochemical, rat; parameters: key to RCC IV at 50XCmax / RCC IV at 100XCmax: activity relative to DMSO-treated controls (control set as 1 = 100%); details: for RCC activity IV: 15 min, DMSO-treated = 100; for RCC IV at 50XCmax: relative to DMSO treated samples, in %
Procedure: (§1) KIs were incubated with submitochondrial particles (1 mg/ml) for 15 min and then RCC I–V activities measured. […] The activities of DMSO-treated samples (controls) were set as 1. […] The difference between the activity from rotenone-containing buffer and rotenone-absent buffer was considered as RCC I activity. […] For measuring RCC I/V and II activity, the changes in absorbance at 340 and 600 nm, respectively, were determined every 1 min for 6 min. For measuring RCC III and RCC IV, the changes in absorbance at 550 nm were measured every 10 s for 2 min.

[2] = cited from earlier work
RCC II = biological target: T1, RCC II (Rattus norvegicus, UniProt P21913+Q641Z9+Q6PCT8+Q920L2); test: RCC II activity in submitochondrial particles; format: biochemical; parameters: key: activity relative to DMSO-treated controls (control set as 1 = 100%); details: relative to DMSO treated samples
T1 construct: Submitochondrial particles were prepared by subjecting the intact mitochondria to three successive freeze–thaw cycles; from tissue; host or cells: rat liver mitochondria, used as submitochondrial particles
Procedure: as §1

[3] = test system: isolated rat liver mitochondria; test: Mitochondrial ROS production (CM-H2DCFDA); details: for ROS measured by CM-H2DCFDA at 1XCmax / ROS measured by CM-H2DCFDA at 2.5XCmax / ROS measured by CM-H2DCFDA at 5XCmax / ROS measured by CM-H2DCFDA at 10XCmax / ROS measured by CM-H2DCFDA at 20XCmax / ROS measured by CM-H2DCFDA at 30XCmax / ROS measured by CM-H2DCFDA at 50XCmax / ROS measured by CM-H2DCFDA at 100XCmax: DMSO treated samples set as 1
RCC III = RCC III activity in submitochondrial particles; format: biochemical, rat; parameters: key to RCC III at 100XCmax: activity relative to DMSO-treated controls (control set as 1 = 100%); details: for RCC activity III: 15 min, DMSO-treated = 100; for RCC III at 100XCmax: relative to DMSO treated samples
Procedure: as §1

RCC V = RCC V activity in submitochondrial particles; format: biochemical, rat; details: for RCC V at 5XCmax / RCC V at 50XCmax: relative to DMSO treated samples; for RCC activity V: 15 min, DMSO-treated = 100; on RCC V at 5XCmax: key: 0 indicates that the drug had no effects (negative)
Procedure: as §1

[4] = parameters: method as in product labeling; details: ref product labeling, cited from earlier work
[5] = test system: isolated rat liver mitochondria; details: positive control alamethicin treated samples
[6] = test system: isolated rat liver mitochondria; test: Mitochondrial inner membrane potential (MMP), Rhodamine 123; format: biochemical; details: difference in signal between KI and DMSO treated samples at the end of experiments
Excerpt: Fig. 3 KI effects on mitochondrial inner membrane potential (MMP). […] In a, c, data are means and standard derivations from three separate experiments. *p < 0.05 as compared to DMSO-treated samples at the end of experiments. In b, data are means of two independent experiments

[7] = cited from earlier work; remark: listed apart in the source
RCC I = RCC I activity in submitochondrial particles; format: biochemical, rat; parameters: key to RCC I at 10XCmax / RCC I at 100XCmax / RCC I at 50XCmax / RCC I at 30XCmax / RCC I at 20XCmax: activity relative to DMSO-treated controls (control set as 1 = 100%); details: 10XCmax; relative to DMSO treated samples
Procedure: as §1

[8] = test system: isolated rat liver mitochondria; test: Mitochondrial oxygen consumption (glutamate/malate or succinate driven, state 4 and state 3); format: biochemical; details: DMSO treated samples set as 1; on State 3 respiration driven by succinate at 10XCmax: key: 0 indicates that the drug had no effects (negative); on State 3 respiration driven by succinate at 1XCmax: key: 0 indicates that the drug had no effects (negative)
Procedure: Rats were anesthetized by an intraperitoneal injection of Nembutal and the liver perfused with PBS to remove the blood. The liver was then cut into small pieces and homogenized using a Dounce type homogenizer in the ice-cold isolation buffer (IB) containing 200 mM sucrose, 10 mM Tris-MOPS, 1 mM EGTA (pH 7.4). The sample was then centrifuged at 600g for 10 min. The supernatant was further centrifuged at 7500g for 10 min, and the pellets was washed once with the IB and centrifuged again at 7500g for 10 min to collect mitochondria. […] Before drug treatment, the protein concentration was adjusted to 1 mg/ml using appropriate buffer. […] Briefly, mitochondrial and cytosolic fractions from four different preparations using four rats were diluted using the Laemmli protein loading buffer and subject to SDS-PAGE with 4–20% gradient gels. The proteins were blotted to PVDF membranes and detected using antibodies against GAPDH, ATP5A, UQCRC2, SDHB, and NDUFB8.
The aliquoted stock solutions were kept for less than one month and each tube was used only once. The KIs were added to the mitochondria at 1:1000 dilutions. […] The Cmax data were from clinical trials which used FDA recommend dosages, route of administration, and duration. […] The final concentration of DMSO for drug treatment was always 0.1%, and control treatments were 0.1% DMSO.
Briefly, mitochondria were incubated with the KIs for 5 min, and then split evenly and loaded to the sample tubes of two Oxytherm systems (Hansatech Instruments Ltd), with one system used for measuring glutamate/malate driven respiration and the other succinate-driven respiration, both of which were defined as state 4 respiration. After 3 min, ADP was added to measure the maximal oxygen consumption rate, which was defined as state 3 respiration. […] The oxygen consumption rate of DMSO-treated samples (controls) was set as 1.

T1 sequence (Q920L2 35-656): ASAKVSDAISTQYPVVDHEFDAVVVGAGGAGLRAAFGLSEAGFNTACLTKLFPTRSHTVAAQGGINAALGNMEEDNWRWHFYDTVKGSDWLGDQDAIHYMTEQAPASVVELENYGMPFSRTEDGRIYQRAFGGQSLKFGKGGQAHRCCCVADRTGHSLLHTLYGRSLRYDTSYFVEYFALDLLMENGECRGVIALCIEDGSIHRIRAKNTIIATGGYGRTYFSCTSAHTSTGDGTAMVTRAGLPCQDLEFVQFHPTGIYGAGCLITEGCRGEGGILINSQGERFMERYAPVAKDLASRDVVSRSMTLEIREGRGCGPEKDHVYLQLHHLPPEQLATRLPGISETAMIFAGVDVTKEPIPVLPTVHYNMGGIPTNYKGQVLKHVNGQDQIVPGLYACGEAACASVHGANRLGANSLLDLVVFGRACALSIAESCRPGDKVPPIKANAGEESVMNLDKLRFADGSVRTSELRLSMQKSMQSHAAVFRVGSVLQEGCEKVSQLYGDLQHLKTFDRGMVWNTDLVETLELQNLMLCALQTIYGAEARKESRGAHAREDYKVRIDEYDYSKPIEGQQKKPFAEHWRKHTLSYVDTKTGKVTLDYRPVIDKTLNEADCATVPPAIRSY
T1 sequence (P21913 31-282): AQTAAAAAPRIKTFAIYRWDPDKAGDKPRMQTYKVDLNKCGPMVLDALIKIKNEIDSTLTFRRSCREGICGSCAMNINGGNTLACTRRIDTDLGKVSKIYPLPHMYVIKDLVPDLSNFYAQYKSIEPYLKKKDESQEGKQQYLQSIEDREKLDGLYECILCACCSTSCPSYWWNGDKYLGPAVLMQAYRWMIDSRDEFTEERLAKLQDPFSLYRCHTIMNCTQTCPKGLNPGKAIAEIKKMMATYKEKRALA
T1 sequence (Q641Z9 1-169): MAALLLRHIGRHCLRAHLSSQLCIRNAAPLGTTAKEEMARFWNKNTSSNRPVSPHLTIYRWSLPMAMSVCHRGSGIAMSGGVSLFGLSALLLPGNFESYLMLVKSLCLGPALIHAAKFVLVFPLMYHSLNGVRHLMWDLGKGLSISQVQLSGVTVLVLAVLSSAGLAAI
T1 sequence (Q6PCT8 57-159): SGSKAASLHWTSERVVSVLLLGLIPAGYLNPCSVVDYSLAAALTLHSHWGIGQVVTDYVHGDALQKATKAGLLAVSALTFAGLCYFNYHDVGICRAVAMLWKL

C[C@@H](Oc1cc(-c2cnn(C3CCNCC3)c2)cnc1N)c1c(Cl)ccc(F)c1Cl [Crizotinib]
Swelling 1XCmax [1]: 0
Swelling 2.5XCmax [1]: 0
Swelling 5XCmax [1]: 0
Swelling 10XCmax [1]: 0
Swelling 20XCmax [1]: 0
Swelling 30XCmax [1]: 0
Swelling 50XCmax [1]: 0
Swelling 100XCmax [1]: 0.19±0.03
effect on mitochondrial swelling ([1]; up to 100-fold Cmax or highest testable concentration, 25 µM calcium chloride): significant mitochondrial swelling
RCC activity IV (RCC IV; 20-fold Cmax): 94.03 ± 9.67 % of control
RCC activity IV (RCC IV; 30-fold Cmax): 96.65 ± 4.14 % of control
RCC activity IV (RCC IV; 50-fold Cmax): 103.77 ± 5.67 % of control
RCC IV at 50XCmax (RCC IV): 0
RCC activity IV (RCC IV; 100-fold Cmax): 96.60 ± 8.40 % of control
DILI potential (based on labeling) ([2]; 1 = DILI positive, 0 = negative, ref product labeling): 1
Labeling for DILI ([2]; BBW: black box warning, W&P: Warnings and Precautions, ref product labeling): W&P: fatal DILI
labeling for DILI ([2]; W&P warnings and precautions, BBW black box warnings, ref FDA product labeling): W&P: fatal DILI
DILI potential (based on labeling) ([2]; ref FDA product labeling): 1
RCC II at 1.0XCmax (RCC II): 0
RCC II at 2.5XCmax (RCC II): 0
RCC II at 5XCmax (RCC II): 0
RCC II at 10XCmax (RCC II): 0
RCC II at 20XCmax (RCC II): 0
RCC II at 30XCmax (RCC II): 0
RCC II at 50XCmax (RCC II): 0
RCC II at 100XCmax (RCC II): 0
ROS measured by CM-H2DCFDA at 1XCmax [3]: 0
ROS measured by CM-H2DCFDA at 2.5XCmax [3]: 0
ROS measured by CM-H2DCFDA at 5XCmax [3]: 0
ROS measured by CM-H2DCFDA at 10XCmax [3]: 0
ROS measured by CM-H2DCFDA at 20XCmax [3]: 1.46±0.08
ROS measured by CM-H2DCFDA at 30XCmax [3]: 1.75±0.32
ROS measured by CM-H2DCFDA at 50XCmax [3]: 2.06±0.27
ROS measured by CM-H2DCFDA at 100XCmax [3]: 2.74±0.18
effect on ROS production ([3]; highest tested concentrations): significantly ROS production
RCC activity III (RCC III; 20-fold Cmax): 99.67 ± 8.65 % of control
RCC activity III (RCC III; 30-fold Cmax): 106.26 ± 5.79 % of control
RCC activity III (RCC III; 50-fold Cmax): 98.02 ± 7.16 % of control
RCC activity III (RCC III; 100-fold Cmax): 103.28 ± 2.85 % of control
RCC III at 100XCmax (RCC III): 0
RCC V at 5XCmax (RCC V): 0
RCC activity V (RCC V; 20-fold Cmax): 95.77 ± 7.64 % of control
RCC activity V (RCC V; 30-fold Cmax): 98.65 ± 2.98 % of control
RCC activity V (RCC V; 50-fold Cmax): 91.95 ± 5.63 % of control
RCC V at 50XCmax (RCC V): 0
Labeling for cardiotoxicity ([4]; BBW: black box warning, W&P: Warnings and Precautions): W&P: QT Interval Prolongation; Bradycardia
Potential for cardiotoxicity (based on labeling) [4]: 1
Cytochrome c release 1XCmax [5]: 0
Cytochrome c release 2.5XCmax [5]: 0
Cytochrome c release 5XCmax [5]: 0
Cytochrome c release 10XCmax [5]: 0
Cytochrome c release 20XCmax [5]: 0
Cytochrome c release 30XCmax [5]: 0
Cytochrome c release 50XCmax [5]: 12.29±1.27 percentage of the positive control group
Cytochrome c release 100XCmax [5]: 24.66±1.67 percentage of the positive control group
MMP measured by Rhodamine 123 at 1XCmax [6]: 0
MMP measured by Rhodamine 123 at 2.5XCmax [6]: 0
MMP measured by Rhodamine 123 at 5XCmax [6]: 0
MMP measured by Rhodamine 123 at 10XCmax [6]: 0
MMP measured by Rhodamine 123 at 20XCmax [6]: 0
MMP measured by Rhodamine 123 at 30XCmax [6]: 0
MMP measured by Rhodamine 123 at 50XCmax [6]: 0
MMP measured by Rhodamine 123 at 100XCmax [6]: 0

COc1cc2ncnc(Nc3ccc(F)c(Cl)c3)c2cc1OCCCN1CCOCC1 [Gefitinib]
Swelling 1XCmax [1]: 0
Swelling 2.5XCmax [1]: 0
Swelling 5XCmax [1]: 0
Swelling 10XCmax [1]: 0
Swelling 20XCmax [1]: 0
Swelling 30XCmax [1]: 0
Swelling 50XCmax [1]: 0
Swelling 100XCmax [1]: 0
Cmax ([7]; human therapeutic Cmax at FDA recommended dosages, ref product labeling and drug approval packages at the official FDA website): 0.27 µM
Cmax ([7]; read-out: Cmax at µM, therapeutic maximal blood concentration, ref product labeling): 0.27 µM
Cmax ([7]; therapeutic maximal blood concentration, ref product labeling): 122 ng/mL
RCC IV at 50XCmax (RCC IV): 0
RCC I at 10XCmax (RCC I): 0
RCC II at 1.0XCmax (RCC II): 0
RCC II at 2.5XCmax (RCC II): 0
RCC II at 5XCmax (RCC II): 0
RCC II at 10XCmax (RCC II): 0
RCC II at 20XCmax (RCC II): 0
RCC II at 30XCmax (RCC II): 0
RCC II at 50XCmax (RCC II): 0
RCC II at 100XCmax (RCC II): 0
ROS measured by CM-H2DCFDA at 1XCmax [3]: 0
ROS measured by CM-H2DCFDA at 2.5XCmax [3]: 0
ROS measured by CM-H2DCFDA at 5XCmax [3]: 0
ROS measured by CM-H2DCFDA at 10XCmax [3]: 0
ROS measured by CM-H2DCFDA at 20XCmax [3]: 0
ROS measured by CM-H2DCFDA at 30XCmax [3]: 0
ROS measured by CM-H2DCFDA at 50XCmax [3]: 0
ROS measured by CM-H2DCFDA at 100XCmax [3]: 0
RCC III at 100XCmax (RCC III): 0
RCC V at 5XCmax (RCC V): 0
RCC V at 50XCmax (RCC V): 0
Potential for cardiotoxicity (based on labeling) [4]: 0
State 3 respiration driven by succinate at 1XCmax ([8]; 1XCmax): 0
State 4 respiration driven by succinate at 1XCmax ([8]; 1XCmax): 0
State 3 respiration driven by succinate at 2.5XCmax ([8]; 2.5XCmax): 0
State 4 respiration driven by succinate at 2.5XCmax ([8]; 2.5XCmax): 0
State 3 respiration driven by succinate at 5XCmax ([8]; 5XCmax): 0
State 4 respiration driven by succinate at 5XCmax ([8]; 5XCmax): 0
State 3 respiration driven by succinate at 10XCmax ([8]; 10XCmax): 0
State 4 respiration driven by succinate at 10XCmax ([8]; 10XCmax): 0
State 3 respiration driven by succinate at 20XCmax ([8]; 20XCmax): 0
State 4 respiration driven by succinate at 20XCmax ([8]; 20XCmax): 0
State 3 respiration driven by succinate at 30XCmax ([8]; 30XCmax): 0
State 4 respiration driven by succinate at 30XCmax ([8]; 30XCmax): 0
State 3 respiration driven by succinate at 50XCmax ([8]; 50XCmax): 0
State 4 respiration driven by succinate at 50XCmax ([8]; 50XCmax): 0
State 3 respiration driven by succinate at 100XCmax ([8]; 100XCmax): 0
State 4 respiration driven by succinate at 100XCmax ([8]; 100XCmax): 0
Cytochrome c release 1XCmax [5]: 0
Cytochrome c release 2.5XCmax [5]: 0
Cytochrome c release 5XCmax [5]: 0
Cytochrome c release 10XCmax [5]: 0
Cytochrome c release 20XCmax [5]: 0
Cytochrome c release 30XCmax [5]: 0
Cytochrome c release 50XCmax [5]: 0
Cytochrome c release 100XCmax [5]: 0
MMP measured by Rhodamine 123 at 1XCmax [6]: 0
MMP measured by Rhodamine 123 at 2.5XCmax [6]: 0
MMP measured by Rhodamine 123 at 5XCmax [6]: 0
MMP measured by Rhodamine 123 at 10XCmax [6]: 0
MMP measured by Rhodamine 123 at 20XCmax [6]: 0
MMP measured by Rhodamine 123 at 30XCmax [6]: 0
MMP measured by Rhodamine 123 at 50XCmax [6]: 0
MMP measured by Rhodamine 123 at 100XCmax [6]: 0
